# “Also recorded” adds a separate entry of the source.
# Experiments:
# TSHR [1] = target: T1, TSHR (Homo sapiens, UniProt P16473); test: inhibition of TSH-mediated cAMP response in HEK-EM 293 cells stably expressing TSHR; assay type: cell-based; set-up: expressed in transfected cells
# Procedure: (§1) Transiently transfected cells were cultured for 48 hours before the cAMP assay. HEK-EM 293 cells stably expressing TSHR, LHCGR or FSHR were seeded into 24-well plates with a density of 2.2×10^5 cells/well 24 hours before the cAMP assay. After removal of growth medium, cells were incubated for 1 hour in HBSS (Cellgro) with 10 mM HEPES (Cellgro) containing 1 mM 3-isobutyl-1-methylxanthine (IBMX) (Sigma) and the ligand of interest in a humidified 5% CO2 incubator at 37° C. The intracellular cAMP content was determined with the cAMP Biotrak Enzymeimmunoassay (EIA) System (GE Healthcare). Data were analyzed using GraphPad Prism 4 for Windows. Receptor expression was measured as described in Jaschke et al., J Biol Chem 281:9841-9844.
# The TSH-mediated cAMP response of TSHR was inhibited by a maximum of 70.8±5.5% at 30 μM compound 52. […] Compound 52 has no activity at FSHR.
# To exclude the possibility that compound 52 might be acting independently of TSHR by building aggregates with TSH, thereby inhibiting the TSH-induced response, tests were conducted for a possible aggregation between these two ligands. Compound 52 and TSH were preincubated for up to 15 minutes before addition to HEK-EM 293 cells stably expressing TSHR. […] There was no difference in the antagonistic effect whether TSH and compound 52 were preincubated together or not (data not shown) thereby excluding the possibility that its effect was caused by aggregation with TSH.
# human TSH receptor = target: T2, human TSH receptor (Homo sapiens, UniProt P16473); test: intracellular cAMP accumulation, agonism at TSHR stably expressed in HEK EM 293 cells; assay type: cell-based
# T2 construct: expressed in transfected cells
# T2 sequence (P16473 21-764): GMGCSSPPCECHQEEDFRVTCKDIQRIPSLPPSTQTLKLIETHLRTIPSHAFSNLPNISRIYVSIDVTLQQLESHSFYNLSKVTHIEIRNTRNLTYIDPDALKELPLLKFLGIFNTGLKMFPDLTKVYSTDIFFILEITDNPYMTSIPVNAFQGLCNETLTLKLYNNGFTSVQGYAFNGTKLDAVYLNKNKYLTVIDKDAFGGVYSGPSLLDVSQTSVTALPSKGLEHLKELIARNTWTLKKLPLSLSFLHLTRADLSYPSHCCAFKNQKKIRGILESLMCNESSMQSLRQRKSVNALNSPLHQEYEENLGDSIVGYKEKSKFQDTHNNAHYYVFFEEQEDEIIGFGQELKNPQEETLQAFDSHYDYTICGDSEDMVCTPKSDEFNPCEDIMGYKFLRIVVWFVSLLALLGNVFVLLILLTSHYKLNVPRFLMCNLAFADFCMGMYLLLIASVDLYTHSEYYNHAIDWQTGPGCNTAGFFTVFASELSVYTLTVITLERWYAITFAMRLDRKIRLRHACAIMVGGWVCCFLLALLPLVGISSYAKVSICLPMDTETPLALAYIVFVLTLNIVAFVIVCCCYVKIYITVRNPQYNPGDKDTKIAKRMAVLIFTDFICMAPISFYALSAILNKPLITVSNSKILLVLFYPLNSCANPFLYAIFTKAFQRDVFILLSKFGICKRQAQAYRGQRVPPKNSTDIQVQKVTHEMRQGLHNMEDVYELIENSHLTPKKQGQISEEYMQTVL
# Procedure: With reference to Table 1, exemplary disclosed compounds were evaluated against human TSH receptor and human LHCG receptor that were stably expressed in HEK 293 EM cells as previously described by Libert et al. (Biochem. Biophys. Res. Commun. 1989, 165, 1250-1255); and by Schulz et al. (Mol. Endocrinol. 1999, 13, 181-190). Cell surface expression of TSH receptor and LHCG receptor were determined via FACS analysis (Kleinau, G.; Jäschke, H.; Neumann, S.; Lättig, S.; Paschke, R.; Krause, G. J. Biol. Chem. 2004, 279, 51590-51600). Agonism of compounds 3-20 were determined via measurement of intracellular cyclic AMP accumulation. […] For example, […] certain compounds disclosed herein exerted no discernible effect on the FSH receptor.
# Cells were cultured for 48 h in 24-well plates before incubation for 1 h in serum-free DMEM containing 1 mM 3-isobutyl-1-methylxanthine (IBMX) (SIGMA) and bovine TSH (1.8 μM) (SIGMA) or human LH (1000 ng/ml) (Dr. A. Parlow, NIDDK National Hormone and Pituitary Program) or compounds 3-19 (0-100 μM) in a humidified 5% CO2 incubator. Following aspiration of the medium after incubation with compounds, cells were lysed using lysis buffer 1 of the cAMP Biotrak Enzymeimmunoassay (EIA) System (Amersham Biosciences). The cAMP content of the cell lysate was determined using the manufacturer's protocol. The efficacy of receptor activation by small molecule modulators is expressed as % of maximum response of LHCG receptor or TSH receptor to LH or TSH, respectively. The potency (EC50) was obtained from dose response curves (0-100 μM compound) by data analysis with GraphPad Prism 4 for Windows. With reference to FIG. 1, intracellular cAMP production was determined in response to 100 μM of each compound and is expressed as % of maximum response of TSHR/LHCGR to TSH (100 mU/ml)/LH (1000 ng/ml). The data are presented as mean±SEM of two independent experiments, each performed in duplicate.
# as §1
# TSHR mutant M9 = test: cAMP production in HEK-EM 293 cells transiently expressing TSHR mutant M9; assay type: cell-based, human
# Procedure: HEK-EM 293 cells were grown in Dulbecco's modified Eagle's Medium (DMEM) supplemented with 10% fetal bovine serum, 100 units/ml penicillin and 10 μg/ml streptomycin (Life Technologies Inc.) at 37° C. in a humidified 5% CO2 incubator. Cells were transiently transfected with wild type TSHR and mutant receptors in 24-well plates (7.5×10^4 cells per well) with 0.4 μg DNA/well using FuGENE™ 6 reagent (Roche) according to the manufacturer's protocol.
# The M9 mutant is described in Jaschke et al., J Biol Chem 281:9841-9844. The Y7.42A mutant was introduced into hTSHR-pcDNA3.1 via the QuickChange XL Site-Directed Mutagenesis kit (Stratagene). The construct was verified by sequencing (MWG Biotech).
# Transiently transfected cells were cultured for 48 hours before the cAMP assay. HEK-EM 293 cells stably expressing TSHR, LHCGR or FSHR were seeded into 24-well plates with a density of 2.2×10^5 cells/well 24 hours before the cAMP assay. […] The intracellular cAMP content was determined with the cAMP Biotrak Enzymeimmunoassay (EIA) System (GE Healthcare). Data were analyzed using GraphPad Prism 4 for Windows. Receptor expression was measured as described in Jaschke et al., J Biol Chem 281:9841-9844.
# LHCG receptor = LHCG receptor (Mus musculus, UniProt P30730); conditions: ovulation induction model; cited from earlier work
# Chain of LHCG receptor (P30730 27-700): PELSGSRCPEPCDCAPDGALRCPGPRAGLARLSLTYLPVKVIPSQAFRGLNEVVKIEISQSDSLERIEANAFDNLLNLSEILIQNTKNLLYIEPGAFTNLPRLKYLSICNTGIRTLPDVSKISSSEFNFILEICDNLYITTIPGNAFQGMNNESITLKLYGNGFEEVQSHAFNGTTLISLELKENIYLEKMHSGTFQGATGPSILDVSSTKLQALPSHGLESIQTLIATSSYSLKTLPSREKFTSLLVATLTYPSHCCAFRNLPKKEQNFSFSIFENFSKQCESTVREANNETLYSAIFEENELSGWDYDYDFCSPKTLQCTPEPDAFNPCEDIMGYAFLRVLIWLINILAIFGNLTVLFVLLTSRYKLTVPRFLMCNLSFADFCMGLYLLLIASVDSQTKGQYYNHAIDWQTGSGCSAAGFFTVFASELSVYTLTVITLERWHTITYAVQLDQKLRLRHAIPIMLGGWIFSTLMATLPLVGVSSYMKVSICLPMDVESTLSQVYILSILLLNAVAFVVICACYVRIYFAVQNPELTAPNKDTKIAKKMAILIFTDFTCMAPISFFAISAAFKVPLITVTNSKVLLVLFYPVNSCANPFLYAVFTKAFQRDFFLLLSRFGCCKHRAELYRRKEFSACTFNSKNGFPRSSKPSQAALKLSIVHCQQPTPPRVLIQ
# human LHCG receptor = target: T3, human LHCG receptor (Homo sapiens, UniProt P22888); test: intracellular cAMP accumulation, agonism at LHCGR stably expressed in HEK EM 293 cells; assay type: cell-based
# T3 construct: expressed in transfected cells
# T3 sequence (P22888 27-699): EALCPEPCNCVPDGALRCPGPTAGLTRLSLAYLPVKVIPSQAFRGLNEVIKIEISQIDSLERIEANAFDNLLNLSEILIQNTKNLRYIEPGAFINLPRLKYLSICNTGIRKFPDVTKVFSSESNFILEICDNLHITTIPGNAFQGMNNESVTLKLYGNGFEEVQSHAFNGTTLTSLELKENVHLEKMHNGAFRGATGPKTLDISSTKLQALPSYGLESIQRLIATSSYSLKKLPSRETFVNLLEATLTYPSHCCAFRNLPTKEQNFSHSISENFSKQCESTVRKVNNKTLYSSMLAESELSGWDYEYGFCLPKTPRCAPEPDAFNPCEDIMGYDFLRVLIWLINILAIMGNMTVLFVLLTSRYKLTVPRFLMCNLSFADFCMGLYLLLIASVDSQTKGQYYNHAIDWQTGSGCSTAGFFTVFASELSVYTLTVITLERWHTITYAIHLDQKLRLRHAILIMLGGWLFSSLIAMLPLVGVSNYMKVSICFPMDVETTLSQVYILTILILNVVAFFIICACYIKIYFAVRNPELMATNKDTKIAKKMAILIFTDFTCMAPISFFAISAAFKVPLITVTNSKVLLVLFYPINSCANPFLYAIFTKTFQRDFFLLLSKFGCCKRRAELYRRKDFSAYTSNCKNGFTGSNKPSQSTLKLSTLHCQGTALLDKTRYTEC
# Procedure: With reference to Table 1, exemplary disclosed compounds were evaluated against human TSH receptor and human LHCG receptor that were stably expressed in HEK 293 EM cells as previously described by Libert et al. (Biochem. Biophys. Res. Commun. 1989, 165, 1250-1255); and by Schulz et al. (Mol. Endocrinol. 1999, 13, 181-190). Cell surface expression of TSH receptor and LHCG receptor were determined via FACS analysis (Kleinau, G.; Jäschke, H.; Neumann, S.; Lättig, S.; Paschke, R.; Krause, G. J. Biol. Chem. 2004, 279, 51590-51600).
# Following aspiration of the medium after incubation with compounds, cells were lysed using lysis buffer 1 of the cAMP Biotrak Enzymeimmunoassay (EIA) System (Amersham Biosciences). The cAMP content of the cell lysate was determined using the manufacturer's protocol. […] The potency (EC50) was obtained from dose response curves (0-100 μM compound) by data analysis with GraphPad Prism 4 for Windows. […] The data are presented as mean±SEM of two independent experiments, each performed in duplicate.
# as §1
# solubility = assay type: physicochemical; conditions: compared to compound 52
# TSHR [2] = target: T1, TSHR; test: TsAb (Graves' disease sera)-stimulated cAMP accumulation in HEK-EM 293 cells expressing TSHR; assay type: cell-based; set-up: expressed in transfected cells
# Procedure: as §1
# To assess the therapeutic potential of compound 52 in patients with Graves' disease, its ability to inhibit TSHR activation by TsAbs was tested. First, four patient sera (GD 5, 19, 29, 30) were used at a dilution of 1:50 to test the effect of compound 52 on TsAb-stimulated cAMP accumulation in HEK-EM 293 cells expressing TSHR. All four sera increased cAMP accumulation, but to different extents (FIG. 6). To assess inhibition, cAMP accumulation was measured in response to TsAbs in the presence of 30 μM compound 52. Indeed, compound 52 reduced TsAb-mediated responses of the different sera (set at 100% for each patient's serum) by 28% to 79% (FIG. 6).
# T1 sequence (P16473 21-764): as the sequence (P16473 21-764) above
smiles,measurement,setting,value
"COc1cccc(-c2nc(SC)nc3sc(C(=O)NC(C)(C)C)c(N)c23)c1 [Compound 3, N-tert-butyl-5-amino-4-(3-methoxyphenyl)-2-(methylthio)thieno[2,3-d]pyrimidine-6-carboxamide, reference compound]",inhibition of TSH stimulation of TSH receptor signaling,TSHR [1],35%
same,IC50,TSHR [1]; with EC50 dose of TSH,11 µM
same,"partial agonism, % of TSH activity at TSHR",human TSH receptor,23%
same,% Max. Resp. @ TSHR in μM,"human TSH receptor; % of maximum response of TSHR to TSH (100 mU/ml), * estimated maximum response at 100 μM compound",23.4 ± 3.6%
same,agonist activity at TSHR,human TSH receptor; cAMP,partial agonist
same,EC50,"human TSH receptor; read-out: EC50 (TSHR) in μm [95% C.I.], cAMP, HEK EM 293 cells, dose response 0-100 μM compound, ** estimated EC50, no plateau",6.5 µM
same,agonism at M9,TSHR mutant M9,full agonist
same,in vivo efficacy for LHCG receptor,LHCG receptor,demonstrated
same,% Max. Resp. @ LHCGR in μM,human LHCG receptor; % of maximum response of LHCGR to LH (1000 ng/ml),45.8 ± 5.9%
same,EC50,"human LHCG receptor; read-out: EC50 (LHCGR) in μM [95% C.I.], cAMP, HEK EM 293 cells, dose response 0-100 μM compound",0.3 µM
C[S+]([O-])C/C=C/c1ccc(-c2nc([S+](C)[O-])nc3sc(C(=O)NC(C)(C)C)c(N)c23)cc1 (stereo not shown) [Compound 52/3],antagonistic activity at TSHR in cAMP assay,TSHR [1],antagonist activity similar to compound 52; also recorded: antagonistic activity
same,solubility,solubility,improved solubility
"CC/C=C/c1ccc(-c2nc(SC)nc3sc(C(=O)NC(C)(C)C)c(N)c23)cc1 [N-tert-butyl-5-amino-4-(4-((E)-but-1-enyl)phenyl)-2-(methylthio)thieno[2,3-d]pyrimidine-6-carboxamide]",inhibition of TSH receptor activation by antibodies (IgG) from Graves' disease sera,TSHR [2],inhibit

# From patent US20090203716A1, “Pyrimidine low molecular weight ligands for modulating hormone receptors” (The Government of the United States of America as …, priority 2006, published 2009)
